The source of these data is ChEMBL document CHEMBL3352112, “Exploiting the therapeutic potential of 8-β-d-glucopyranosylgenistein: synthesis, antidiabetic activity, and molecular interaction with islet amyloid polypeptide and amyloid β-peptide (1-42)” (J Med Chem, 2014).

The assay can be described thus: Cytotoxicity against […] HII4E cells after 24 hrs by MTT cell viability assay. Format: cell-based.

SMILES strings stand for the structures. ≈ marks a conversion by molar mass, not a printed value.

With `O=C(N[C@H](CO)[C@H](O)c1ccc([N+](=O)[O-])cc1)C(Cl)Cl` [CHLORAMPHENICOL], the IC50 (commonly the concentration at which inhibition is half-maximal) was 143 µg/mL (≈ 443 µM).
